Test results reported in patent US20260176320A1, “MODULATORS OF G-PROTEIN COUPLED RECEPTORS” (priority 2018, published 2026).
Numbered stars: 1 amine (or outer) side, 2 acyl side, 3 side chain; on linkers, the order of the positions; unused ones are H or OH. Square brackets hold non-standard residues; d marks the D form. Side chains are listed from the residue outwards. Peptide text beside a SMILES is read from it. * marks the point of attachment. Ala(1H-tetrazol-5-yl) = N[C@@H](Cc1nnn[nH]1)C(=O)O; γGlu = O=C(O)[C@H](CCC(=O)[*:2])N[*:1]; Palmitoyl = CCCCCCCCCCCCCCCC(=O)*; X6 = O=C(CSCC(=O)*)NCCN1CCCCC1=O; Aib = CC(C)(N)C(=O)O

How the values were obtained:
Assay type in all cases: cell-based
[1] = target: T1, GLP-1R (Homo sapiens, UniProt P43220); assay: HitHunter cAMP assay (GLP-1R); conditions: Table 3A, cAMP; for Emax: read-out: (Emax) GLP-1R; for EC50: read-out: EC50 GLP-1R/nM
T1 sequence (P43220 24-463): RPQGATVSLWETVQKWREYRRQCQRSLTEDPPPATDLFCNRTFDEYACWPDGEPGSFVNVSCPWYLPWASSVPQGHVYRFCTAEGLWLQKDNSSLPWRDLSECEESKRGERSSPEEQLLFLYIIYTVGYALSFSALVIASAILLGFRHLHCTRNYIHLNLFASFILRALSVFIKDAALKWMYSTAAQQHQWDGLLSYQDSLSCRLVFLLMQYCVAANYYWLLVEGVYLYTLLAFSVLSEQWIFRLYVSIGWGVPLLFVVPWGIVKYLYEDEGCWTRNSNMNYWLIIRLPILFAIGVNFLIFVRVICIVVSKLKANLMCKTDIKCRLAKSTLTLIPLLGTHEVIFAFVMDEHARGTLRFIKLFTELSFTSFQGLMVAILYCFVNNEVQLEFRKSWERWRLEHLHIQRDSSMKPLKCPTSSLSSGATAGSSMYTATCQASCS
Method in brief: (§1)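 Cells were resuspended in HBSS plus HEPES, IBMX (625 μM) and BSA, then dispensed with antibody at 10,000 per well. Agonists followed as 22-point twofold series, 30 min at room temperature. Antibody reagent and detection steps ran 1 h and overnight in the dark before luminescence.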

[2] = target: T1, GLP-1R; assay: PathHunter β-arrestin assay; conditions: PathHunter β-arrestin assay; read-out: β-arrestin activity EC50
Method in brief: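 Agonist concentration–response (22 points, 2-fold steps, duplicates) was run on cells plated the previous day in BSA-supplemented (0.2%) medium. Stimulation lasted 90 min at 37 °C, followed by a 3 h dark incubation with detection reagent at room temperature and a luminescence read.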

[3] = target: T2, GIP-R (Homo sapiens, UniProt P48546); assay: HitHunter cAMP assay (GIP-R); conditions: Table 3A, cAMP; for Emax: read-out: (Emax) GIP-R; for EC50: read-out: EC50 GIP-R/nM
T2 sequence (P48546 22-466): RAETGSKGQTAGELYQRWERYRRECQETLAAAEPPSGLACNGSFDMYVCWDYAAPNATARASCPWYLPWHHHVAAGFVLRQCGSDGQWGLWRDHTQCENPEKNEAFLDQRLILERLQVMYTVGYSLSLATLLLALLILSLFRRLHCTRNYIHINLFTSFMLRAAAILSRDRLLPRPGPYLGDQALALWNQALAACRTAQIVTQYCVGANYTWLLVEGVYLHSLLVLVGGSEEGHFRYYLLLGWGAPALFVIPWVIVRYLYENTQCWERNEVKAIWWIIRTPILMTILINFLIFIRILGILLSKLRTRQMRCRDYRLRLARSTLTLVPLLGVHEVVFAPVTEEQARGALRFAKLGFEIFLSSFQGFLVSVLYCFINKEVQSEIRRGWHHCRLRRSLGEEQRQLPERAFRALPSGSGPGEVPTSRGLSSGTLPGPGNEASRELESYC
Method in brief: as §1

Compound | Emax [1] [%] | EC50 [1] [nM] | EC50 [2] [nM] | Emax [3] [%] | EC50 [3] [nM]
CCCCCCCCCCCCCCCC(=O)N[C@@H](CCC(=O)NCCCC[C@H](NC(=O)[C@H](CO)NC(=O)[C@@H]1CCCN1C(=O)[C@@H]1CCCN1C(=O)[C@@H]1CCCN1C(=O)[C@H](C)NC(=O)CNC(=O)[C@H](CO)NC(=O)[C@H](CO)NC(=O)[C@@H]1CCCN1C(=O)CNC(=O)CNC(=O)[C@H](C)NC(=O)[C@H](CC(C)C)NC(=O)[C@H](CC(C)C)NC(=O)[C@H](Cc1c[nH]c2ccccc12)NC(=O)[C@H](CC(N)=O)NC(=O)[C@@H](NC(=O)[C@H](Cc1ccccc1)NC(=O)[C@H](CCC(=O)O)NC(=O)C(C)(C)NC(=O)[C@H](C)NC(=O)[C@H](C)NC(=O)[C@H](CCC(N)=O)NC(=O)[C@H](CCCCN)NC(=O)[C@H](CC(=O)O)NC(=O)[C@H](CC(C)C)NC(=O)[C@H](Cc1ccc(O)cc1)NC(=O)[C@@H](NC(=O)[C@H](CO)NC(=O)[C@H](Cc1ccc(O)cc1)NC(=O)[C@H](CC(=O)O)NC(=O)[C@H](CO)NC(=O)[C@@H](NC(=O)[C@H](Cc1ccccc1)NC(=O)[C@@H](NC(=O)CNC(=O)[C@H](Cc1nn[nH]n1)NC(=O)CSCC(=O)NCCN1CCCCC1=O)[C@@H](C)O)[C@@H](C)O)[C@@H](C)CC)C(C)C)C(N)=O)C(=O)O [Compound 223] (X6-[Ala(1H-tetrazol-5-yl)]GTFTSDYSIYLDKQAA[Aib]EFVNWLLAGGPSSGAPPPSK([γGlu-Palmitoyl])-NH2) | 101 | < 0.1 | 10 to 1000 | 91 | 0.1 to 1
CCCCCCCCCCCCCCCC(=O)N[C@@H](CCC(=O)NCCCC[C@H](NC(=O)[C@H](CO)NC(=O)[C@@H]1CCCN1C(=O)[C@@H]1CCCN1C(=O)[C@@H]1CCCN1C(=O)[C@H](C)NC(=O)CNC(=O)[C@H](CO)NC(=O)[C@H](CO)NC(=O)[C@@H]1CCCN1C(=O)CNC(=O)CNC(=O)[C@H](C)NC(=O)[C@H](CC(C)C)NC(=O)[C@H](CC(C)C)NC(=O)[C@H](Cc1c[nH]c2ccccc12)NC(=O)[C@H](CC(N)=O)NC(=O)[C@@H](NC(=O)[C@H](Cc1ccccc1)NC(=O)[C@H](CCC(=O)O)NC(=O)C(C)(C)NC(=O)[C@H](C)NC(=O)[C@H](C)NC(=O)[C@H](CCC(N)=O)NC(=O)[C@H](CCCCN)NC(=O)[C@H](CC(=O)O)NC(=O)[C@H](CC(C)C)NC(=O)[C@](C)(Cc1ccc(O)cc1)NC(=O)[C@@H](NC(=O)[C@H](CO)NC(=O)[C@H](Cc1ccc(O)cc1)NC(=O)[C@H](CC(=O)O)NC(=O)[C@H](CO)NC(=O)[C@@H](NC(=O)[C@H](Cc1ccccc1)NC(=O)[C@@H](NC(=O)CNC(=O)[C@H](CCC(=O)O)NC(=O)CSCC(=O)NCCN1CCCCC1=O)[C@@H](C)O)[C@@H](C)O)[C@@H](C)CC)C(C)C)C(N)=O)C(=O)O [Compound 225] | – | 0.1 to 1 | > 1000 | 70 to 80 | 1 to 10
CCCCCCCCCCCCCCCC(=O)N[C@@H](CCC(=O)NCCCC[C@H](NC(=O)[C@H](CO)NC(=O)[C@@H]1CCCN1C(=O)[C@@H]1CCCN1C(=O)[C@@H]1CCCN1C(=O)[C@H](C)NC(=O)CNC(=O)[C@H](CO)NC(=O)[C@H](CO)NC(=O)[C@@H]1CCCN1C(=O)CNC(=O)CNC(=O)[C@H](C)NC(=O)[C@H](CC(C)C)NC(=O)[C@H](CC(C)C)NC(=O)[C@H](Cc1c[nH]c2ccccc12)NC(=O)[C@H](CC(N)=O)NC(=O)[C@@H](NC(=O)[C@H](Cc1ccccc1)NC(=O)[C@H](CCC(=O)O)NC(=O)C(C)(C)NC(=O)[C@H](C)NC(=O)[C@H](C)NC(=O)[C@H](CCC(N)=O)NC(=O)[C@H](CCCCN)NC(=O)[C@H](CC(=O)O)NC(=O)[C@H](CC(C)C)NC(=O)[C@H](Cc1ccc(O)cc1)NC(=O)[C@@H](NC(=O)[C@H](CO)NC(=O)[C@H](Cc1ccc(O)cc1)NC(=O)[C@H](CC(=O)O)NC(=O)[C@H](CO)NC(=O)[C@@H](NC(=O)[C@H](Cc1ccccc1)NC(=O)[C@@H](NC(=O)CNC(=O)[C@H](CCC(=O)O)NC(=O)CSCC(=O)NCC(=O)N1CCCCC1)[C@@H](C)O)[C@@H](C)O)[C@@H](C)CC)C(C)C)C(N)=O)C(=O)O [Compound 226] | 89 | 1 to 10 | > 1000 | 17 | 100 to 1000
